We go through 47 compounds from US9181264B2, “Fused heteroaryls and their uses” (Hutchison MediPharma Limited, priority 2011, dated 2015).

T1 sequence (P42336 whole entry): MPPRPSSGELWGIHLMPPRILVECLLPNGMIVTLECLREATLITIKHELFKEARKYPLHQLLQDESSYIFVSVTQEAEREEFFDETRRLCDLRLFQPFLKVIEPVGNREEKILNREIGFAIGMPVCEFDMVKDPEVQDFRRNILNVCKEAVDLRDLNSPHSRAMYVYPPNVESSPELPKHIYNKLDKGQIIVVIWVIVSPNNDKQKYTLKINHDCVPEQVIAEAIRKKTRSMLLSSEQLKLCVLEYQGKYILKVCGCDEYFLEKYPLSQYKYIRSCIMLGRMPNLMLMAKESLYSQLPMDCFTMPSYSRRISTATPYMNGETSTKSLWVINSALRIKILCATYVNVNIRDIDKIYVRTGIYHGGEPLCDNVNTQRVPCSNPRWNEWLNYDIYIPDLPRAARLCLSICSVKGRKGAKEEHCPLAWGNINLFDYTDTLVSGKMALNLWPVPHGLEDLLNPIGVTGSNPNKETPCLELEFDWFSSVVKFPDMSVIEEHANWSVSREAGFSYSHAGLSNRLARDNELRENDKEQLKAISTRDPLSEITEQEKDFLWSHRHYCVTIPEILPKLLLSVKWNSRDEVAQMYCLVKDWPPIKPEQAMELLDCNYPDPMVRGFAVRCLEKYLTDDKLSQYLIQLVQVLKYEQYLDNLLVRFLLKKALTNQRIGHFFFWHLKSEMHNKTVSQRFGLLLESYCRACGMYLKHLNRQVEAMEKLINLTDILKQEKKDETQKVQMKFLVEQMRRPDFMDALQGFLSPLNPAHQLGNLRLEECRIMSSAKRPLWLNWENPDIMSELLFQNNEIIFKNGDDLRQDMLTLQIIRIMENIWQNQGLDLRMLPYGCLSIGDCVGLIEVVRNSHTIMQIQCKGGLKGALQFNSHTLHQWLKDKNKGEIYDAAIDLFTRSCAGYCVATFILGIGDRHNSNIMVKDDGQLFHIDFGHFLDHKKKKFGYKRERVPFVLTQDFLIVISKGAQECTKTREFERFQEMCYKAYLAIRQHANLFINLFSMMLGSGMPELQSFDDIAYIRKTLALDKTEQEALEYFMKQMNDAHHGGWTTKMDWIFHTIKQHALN
T1 sequence (P27986 whole entry partner): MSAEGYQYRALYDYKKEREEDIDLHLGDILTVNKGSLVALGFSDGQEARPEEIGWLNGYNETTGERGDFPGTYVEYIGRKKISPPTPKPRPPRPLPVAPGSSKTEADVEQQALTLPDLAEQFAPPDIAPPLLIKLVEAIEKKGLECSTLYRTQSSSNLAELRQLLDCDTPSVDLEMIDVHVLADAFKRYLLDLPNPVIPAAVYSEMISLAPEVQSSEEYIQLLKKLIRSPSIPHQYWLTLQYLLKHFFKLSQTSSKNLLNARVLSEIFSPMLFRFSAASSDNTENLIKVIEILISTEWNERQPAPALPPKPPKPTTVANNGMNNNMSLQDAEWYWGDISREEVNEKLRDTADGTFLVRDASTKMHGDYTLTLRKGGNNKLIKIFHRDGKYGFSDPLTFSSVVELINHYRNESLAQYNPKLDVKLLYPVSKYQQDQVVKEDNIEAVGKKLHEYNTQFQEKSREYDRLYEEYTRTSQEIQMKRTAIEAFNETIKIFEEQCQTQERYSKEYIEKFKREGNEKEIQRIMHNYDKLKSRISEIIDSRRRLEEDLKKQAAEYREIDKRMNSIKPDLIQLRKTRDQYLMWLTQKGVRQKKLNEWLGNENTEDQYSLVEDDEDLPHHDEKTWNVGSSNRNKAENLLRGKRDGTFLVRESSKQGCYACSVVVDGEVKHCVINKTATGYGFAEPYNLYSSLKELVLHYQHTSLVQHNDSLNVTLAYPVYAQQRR

The assay addresses T1, PI3Kα kinase (Homo sapiens, UniProt P42336).
T1 construct: purchased Invitrogen PV4788
Nature of the assay: PI3Ka Transcreener ADP assay (fluorescence polarization). Type of assay: biochemical. As to conditions: 10 μM ATP, 30 μmol/L lipid substrate; read-out: IC50, inhibition of PI3Kα kinase. As to the method:
Fluorescence polarization was used in this assay. The final conditions for kinase assay are 10 μM of ATP, 0.2 ng/μL of PI3Kα kinase, 30 μmol/L of lipid substrate and assay buffer (50 mmol/L of HEPES (pH 7.5), 100 mmol/L of NaCl, 1 mmol/L of EGTA, 3 mmol/L of MgCl2, 1 mmol/L of DTT and 0.03% CHAPS and 2% DMSO).
5 μL of test compounds in 10% DMSO and 10 μL of 0.5 ng/μL PI3K kinase (Invitrogen, PV4788) in assay buffer are put into a 96-well plate (Greiner, Cat. 675076), and then the reaction is started by the addition of 10 μL of 75 μmol/L PIP2, (PS Lipid Substrate Invitrogen, PV5100), and 25 μmol/L ATP mixture. After the mixture is incubated for 60 minutes at room temperature, 25 μL of transcreener Kinase Kit reagent—ADP Detection Mix—(Bellbrook Labs) is added, and the reaction is continued for an additional 1.5 hours. At the end, the plate is read in a Tecan Infinite F500 at excitation of 610 nm and emission of 670 nm.
A standard curve for ADP is obtained in a parallel way by replacing compound and PI3Kα kinase with DMSO and assay buffer, respectively. Different concentration of ADP, 0-10 μM, and ATP, 10-0 μM (ATP+ADP equal to 10 μM) are applied instead of a fixed concentration of ATP in this standard curve assay. Other conditions are the same as described above. The standard curve is plotted using Origin 8.0 software. The inhibition of test compound on ADP production is calculated based on ADP concentration from standard curve. IC50 is obtained using XLfit 2.0 software.
(In general: Polarisation of emitted light reports the rotation of a fluorescent probe.)
In general, IC50 refers to the midpoint of a concentration-inhibition curve. Take `Cc1ccc(-c2ccc3ncc4nnn(C5CCN(C(=O)[C@H](C)O)CC5)c4c3n2)cn1` [Compound 2]: the half-inhibitory concentration (IC50) was under 100 nM.

`Cc1cc(-c2ccc3ncc4nnn(C5CCN(C(=O)[C@H](C)O)CC5)c4c3n2)cnc1N` [Compound 3]: the IC50 was under 100 nM.

On to `COc1ccc(-c2ccc3ncc4nnn(C5CCN(C(=O)[C@H](C)O)CC5)c4c3n2)cn1` [Compound 5], for which the IC50 was under 100 nM.

With `C[C@H](O)C(=O)N1CCC(n2nnc3cnc4ccc(-c5cnc6[nH]ccc6c5)nc4c32)CC1` [Compound 8], the concentration for half-maximal inhibition (IC50) is under 100 nM.

As for `Nc1ncc(-c2ccc3ncc4nnn(C5CCN(C(=O)C6CC6)CC5)c4c3n2)cc1F` [Compound 11], the IC50 was under 100 nM.

Consider `Nc1ncc(-c2ccc3ncc4nnn(-c5cccc(Cl)c5)c4c3c2)cn1` [Compound 13], for which the IC50 is under 100 nM.

For the compound `CC(=O)N1CCC(n2nnc3cnc4ccc(-c5cnc(N)c(C(F)(F)F)c5)cc4c32)CC1` [Compound 15], the half-inhibitory concentration (IC50) was under 100 nM.

For the compound `CC(C)(C#N)c1ccc(-n2nnc3cnc4ccc(-c5cnc(N)nc5)nc4c32)cc1` [Compound 18], the IC50 is under 100 nM.

Turning to `Nc1ncc(-c2ccc3ncc4nnn(C5CCN(CC6CC6)CC5)c4c3n2)cc1C(F)(F)F` [Compound 20], the IC50 is under 100 nM.

`Cc1cc(-c2ccc3ncc4nnn(C5CCN(C(=O)[C@@H](C)O)CC5)c4c3n2)cnc1N` [Compound 22]: the IC50 is under 100 nM.

Take `C[C@H](O)C(=O)N1CCC(n2nnc3cnc4ccc(-c5cnc(N)c(C(F)(F)F)c5)cc4c32)CC1` [Compound 23]: the IC50 was under 100 nM.

In the case of `C[C@@H](O)C(=O)N1CCC(n2nnc3cnc4ccc(-c5cnc(N)c(C(F)(F)F)c5)cc4c32)CC1` [Compound 24], the half-maximal inhibitory concentration (IC50) is under 100 nM.

`C=CC(=O)N1CCC(n2nnc3cnc4ccc(-c5cnc(N)c(C(F)(F)F)c5)nc4c32)CC1` [Compound 28]: the IC50 is under 100 nM.

`C=CC(=O)N1CCC(n2nnc3cnc4ccc(-c5cnc(N)c(C)c5)nc4c32)CC1` [Compound 29]: the IC50 is under 100 nM.

For `CC(C)C(=O)N1CCC(n2nnc3cnc4ccc(-c5cnc(N)c(F)c5)nc4c32)CC1` [Compound 31], the half-inhibitory concentration (IC50) is under 100 nM.

On to `CN1CCC(C(=O)N2CCC(n3nnc4cnc5ccc(-c6cnc(N)c(C(F)(F)F)c6)nc5c43)CC2)CC1` [Compound 36], for which the IC50 was under 100 nM.

For `CCCCC(=O)N1CCC(n2nnc3cnc4ccc(-c5cnc(N)c(C(F)(F)F)c5)nc4c32)CC1` [Compound 37], the IC50 was under 100 nM.

As for `Nc1ncc(-c2ccc3ncc4nnn(C5CCN(C(=O)CC6CC6)CC5)c4c3n2)cc1C(F)(F)F` [Compound 38], the IC50 was under 100 nM.

For `Nc1ncc(-c2ccc3ncc4nnn(C5CCN(C(=O)C6(O)CC6)CC5)c4c3n2)cc1C(F)(F)F` [Compound 39], the IC50 is under 100 nM.

Regarding `Nc1ncc(-c2ccc3ncc4nnn(C5CCN(C(=O)c6ccccn6)CC5)c4c3n2)cc1C(F)(F)F` [Compound 40], the concentration for half-maximal inhibition (IC50) was under 100 nM.

For `Nc1ncc(-c2ccc3ncc4nnn(C5CCN(C(=O)c6ccccc6)CC5)c4c3n2)cc1C(F)(F)F` [Compound 41], the IC50 is under 100 nM.

As to `Nc1ncc(-c2ccc3ncc4nnn(C5CCN(Cc6ccccn6)CC5)c4c3n2)cc1C(F)(F)F` [Compound 47], the 50% inhibitory concentration (IC50) is under 100 nM.

With `Nc1ncc(-c2ccc3ncc4nnn(C5CCN(CC6CCOCC6)CC5)c4c3n2)cc1C(F)(F)F` [Compound 48, 5-(1-(1-((tetrahydro-2H-pyran-4-yl)methyl)piperidin-4-yl)-1H-[1,2,3]triazolo[4,5-c][1,5]naphthyridin-8-yl)-3-(trifluoromethyl)pyridin-2-amine], the IC50 is under 100 nM.

On to `CC(C)(C#N)c1ccc(-c2nnc3cnc4ccc(-c5cnc(N)c(C(F)(F)F)c5)cc4n23)cn1` [Compound 54], for which the IC50 is under 100 nM.

For `Cc1cc(-c2ccc3ncc4nnc(-c5ccc(C(C)(C)C#N)nc5)n4c3c2)cnc1N` [Compound 57], the half-maximal inhibitory concentration (IC50) was under 100 nM.

Consider `Nc1ncc(-c2ccc3ncc4nnc(-c5ccc(F)cn5)n4c3c2)cc1C(F)(F)F` [Compound 59], for which the IC50 was under 100 nM.

`Nc1nc2ccc(-c3ccc4ncc5nnc(-c6ccc(F)cn6)n5c4c3)cc2s1` [Compound 60]: the IC50 is under 100 nM.

Turning to `CC(C)(C#N)c1ccc(-c2nnc3cnc4ccc(-c5ccc6[nH]ncc6c5)cc4n23)cc1` [Compound 61], the IC50 is under 100 nM.

`N#Cc1cccc(-c2nnc3cnc4ccc(-c5cnc(N)c(C(F)(F)F)c5)cc4n23)c1` [Compound 62]: the IC50 is under 100 nM.

For the compound `N#Cc1ccc(-c2nnc3cnc4ccc(-c5cnc(N)c(C(F)(F)F)c5)cc4n23)cc1` [Compound 64], the IC50 is under 100 nM.

Take `Cc1ccc(-c2nnc3cnc4ccc(-c5cnc(N)c(C(F)(F)F)c5)cc4n23)cn1` [Compound 65]: the IC50 is under 100 nM.

For the compound `CC(C)(C#N)c1ccc(-c2nnc3cnc4ccc(-c5ccc6nc(N)oc6c5)cc4n23)cn1` [Compound 67], the IC50 was under 100 nM.

As for `CC(C)(C#N)C(=O)c1ccc(-c2nnc3cnc4ccc(-c5cnc(N)c(C(F)(F)F)c5)cc4n23)cc1` [Compound 68], the IC50 is under 100 nM.

As for `CC(C)(C#N)c1ccc(-c2nnc3cnc4ccc(-c5cnc6[nH]ccc6c5)cc4n23)cc1` [Compound 69], the IC50 was under 100 nM.

Take `Nc1ncc(-c2ccc3ncc4nnc(-c5ccc(F)cc5)n4c3c2)cc1C(F)(F)F` [Compound 70]: the IC50 was under 100 nM.

On to `CS(=O)(=O)c1ccc(-c2nnc3cnc4ccc(-c5cnc(N)c(C(F)(F)F)c5)cc4n23)cc1` [Compound 71], for which the IC50 is under 100 nM.

As to `N#Cc1ccc(-c2nnc3cnc4ccc(-c5ccc6nc(N)sc6c5)cc4n23)nc1` [Compound 73], the IC50 is under 100 nM.

Take `COc1ncc(-c2ccc3ncc4nnc(-c5ccc(C(C)(C)C#N)cc5)n4c3c2)cc1N` [Compound 74]: the IC50 is under 100 nM.

On to `COc1cc(-c2ccc3ncc4nnc(-c5ccc(C(C)(C)C#N)cc5)n4c3c2)cnc1OC` [Compound 76], for which the IC50 was under 100 nM.

With `CC(C)(C#N)c1ccc(-c2nnc3cnc4ccc(-c5cnc(N)c(Cl)c5)cc4n23)cc1` [Compound 77], the IC50 was under 100 nM.

As to `C[C@H](O)C(=O)N1CCC(c2nnc3cnc4ccc(-c5cnc(N)c(C(F)(F)F)c5)cc4n23)CC1` [Compound 79, (S)-1-(4-(8-(6-amino-5-(trifluoromethyl)pyridin-3-yl)-[1,2,4]triazolo[4,3-a]quinoxalin-1-yl)piperidin-1-yl)-2-hydroxypropan-1-one], the IC50 was under 100 nM.

Take `C[C@H](O)C(=O)N1CCC(c2nnc3cnc4ccc(-c5ccc6nc(N)sc6c5)cc4n23)CC1` [Compound 80]: the IC50 is under 100 nM.

As for `C[C@@H](O)C(=O)N1CCC(c2nnc3cnc4ccc(-c5ccc6nc(N)sc6c5)cc4n23)CC1` [Compound 81], the IC50 was under 100 nM.

`CC(=O)N1CCC(Cc2nnc3cnc4ccc(-c5cnc(N)c(C(F)(F)F)c5)cc4n23)CC1` [Compound 82]: the IC50 was under 100 nM.

As for `CC(=O)N1CCC(Cc2nnc3cnc4ccc(-c5ccc6nc(N)sc6c5)cc4n23)CC1` [Compound 83], the IC50 is under 100 nM.

In the case of `CC(=O)N1CCCC(c2nnc3cnc4ccc(-c5ccc6nc(N)sc6c5)cc4n23)C1` (centres unmarked) [Compound 84], the IC50 was under 100 nM.

On to `Nc1ncc(-c2ccc3ncc4nnc(C5CCC(O)CC5)n4c3c2)cc1C(F)(F)F` (centres unmarked) [Compound 85], for which the half-inhibitory concentration (IC50) is under 100 nM.
